Test results reported in article PMC11912122, “Gut in Tube—Continuous Measurement of Metabolic Crosstalk between Cell Populations in Heterogeneous Samples by NMR Imaging” (Analytical Chemistry, 2025).
Square brackets hold non-standard residues; d marks the D form. Peptide text beside a SMILES is read from it. Phe(4-F) = N[C@@H](Cc1ccc(F)cc1)C(=O)O

System: Cocultures of colonocytes (Caco-2, HT29, T84, SW620)
Experiment: Cell viability assay (MTT)
Format: cell-based, human
Conditions: peptide 1.6 mg/mL, 37 °C, 3 h, OD590, % viability vs control, n=3
Description: Individual cell lines (Caco-2, HT29, T84, and SW620) were grown from frozen stocks, prepared at ca. 1 million/mL. Cells were seeded in a T-75 tissue culture flask, passaged once, and matured to ca. 10 million/mL in a T-175 flask in complete media. Cells were rinsed twice with Ca^2+/Mg^2+-free PBS (25 mL, CAS D8537), trypsinized, the trypsin deactivated with P/S-free complete media, all four lineages mixed in a 1:1:1:1 ratio, pelleted (300 rcf, 5 min), and resuspended in alginate (sodium alginate, CAS 9005–38–3, 1% w/v in P/S-free complete media). The cell suspension was extruded through a 200 μL pipet tip dropwise into cold CaCl2 (0.3 M in phosphate-buffered saline, PBS, CAS D8662, 15 °C) under stirring (100 r.p.m.). The cell spheres (Figures S1 and S2, Supporting Information (SI)) were removed from the CaCl2 solution, washed, and stored in P/S-free complete media before further use.
The effect of the peptide on cell viability was measured using a cell proliferation kit (CAS 11465007001). 3-[4,5-Dimethylthiazole-2-yl]-2,5-diphenyltetrazolium bromide (MTT) was solubilized in PBS (5 mg/mL) and filter-sterilized (0.22-μm). Cocultures of colonocytes were grown in phenol red-free complete media in 24-well plates to ca. 50% confluency. […] The absorbance (OD590) in each well was read, and % viability was calculated against the control (Figure S6, SI).

C[C@H](NC(=O)[C@@H](N)Cc1ccc(F)cc1)C(=O)N[C@@H](Cc1c[nH]cn1)C(=O)N[C@@H](Cc1c[nH]c2ccccc12)C(N)=O [p-F-Phe-Ala-His-Trp] (H-[Phe(4-F)]AHW-NH2)
effect on colonocyte viability: no significant (p > 0.05) effect and ns
